Results taken from ChEMBL document CHEMBL3352677, “Thiazolidine-2,4-diones as multi-targeted scaffold in medicinal chemistry: Potential anticancer agents” (2014).
≈ marks a conversion by molar mass, not a printed value.

System: Artemia
Assay: Cytotoxicity in brine shrimps larvae assessed as mortality after 24 hrs
Format: functional
Settings: read-out: ED50 (the source's name)

| SMILES | EC50 [µg/mL] |
| --- | --- |
| O=C1NC(=O)/C(=C/c2ccc(/C=C/C(=O)c3ccc(F)cc3)cc2)S1 | 4 (≈ 11.3 µM) |
| COc1cc([C@@H]2c3cc4c(cc3[C@H](O)[C@H]3COC(=O)[C@H]23)OCO4)cc(OC)c1OC [PODOFILOX] | 3.61 (≈ 8.71 µM) |
| O=C1NC(=O)/C(=C/c2ccc(/C=C/C(=O)c3cccc(F)c3)cc2)S1 | 4 (≈ 11.3 µM) |
| O=C1NC(=O)/C(=C/c2ccc(/C=C/C(=O)c3cccs3)cc2)S1 | 4 (≈ 11.7 µM) |
